Experimental data taken from paper PMC10500568, “Inhibition of MurA Enzyme from Escherichia coli by Flavonoids and Their Synthetic Analogues” (ACS Omega, 2023).
Like-named read-outs stand apart in the source and are kept apart here.

Key:
S. aureus (ATCC 29213) = test: Antibacterial assay, broth microdilution MIC; assay type: cell-based, Staphylococcus aureus; details: for inhibition of S. aureus growth: broth microdilution
Experimental: (§1) To test antimicrobial properties, a broth microdilution method in 96-well plates was used according to Clinical and Laboratory Standards Institute guidelines[31] and European Committee on Antimicrobial Susceptibility Testing ([…]) recommendations.[32] Bacterial suspensions, equivalent to a 0.5 McFarland turbidity standard, were diluted with cation-adjusted Mueller–Hinton broth with TES buffering (ThermoFisher Scientific) to achieve a final inoculum of 10^5 CFU/mL. Compounds dissolved in 100% DMSO at a concentration of 10 mM were mixed with the inoculum and incubated at 35 °C for 20 h.

MurA enzyme from E. coli [1] = target: T1, MurA enzyme from E. coli (Escherichia coli, UniProt P0A749); test: MurA dilution assay; assay type: biochemical; details: for RA% (residual activity), dilution assay: compound at 10 times IC50, 30 min preincubation, then 100-fold dilution
T1 sequence (P0A749 whole entry): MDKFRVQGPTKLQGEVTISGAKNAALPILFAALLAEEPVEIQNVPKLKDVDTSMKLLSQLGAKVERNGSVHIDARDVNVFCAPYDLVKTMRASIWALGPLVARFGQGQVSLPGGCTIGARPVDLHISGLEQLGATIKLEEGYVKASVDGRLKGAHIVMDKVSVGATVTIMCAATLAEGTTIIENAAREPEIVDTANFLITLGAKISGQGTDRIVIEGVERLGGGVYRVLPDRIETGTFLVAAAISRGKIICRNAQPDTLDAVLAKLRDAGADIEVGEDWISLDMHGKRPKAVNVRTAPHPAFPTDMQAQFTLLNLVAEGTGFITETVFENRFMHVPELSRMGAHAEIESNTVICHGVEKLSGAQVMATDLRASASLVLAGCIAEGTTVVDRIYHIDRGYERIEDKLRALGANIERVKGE
Experimental: The enzyme concentration used was the usual concentration in reactivity assays 100-fold (25 μM). After 30 min of preincubation, the mixture was diluted 100-fold, then the previously described reactivity assay was performed using 100 μM PEP.

MurA enzyme from E. coli [2] = target: T1, MurA enzyme from E. coli; test: MurA inhibition assay (malachite green, orthophosphate release); assay type: biochemical; details: for time-dependent inhibition: inactive without preincubation, activity after 30 min of preincubation: 0 min vs 30 min preincubation; for effect of DTT on inhibition (comparison of RAs): in the presence of DTT; for inhibitory activity on MurA in at least one of the three assays: residual activity at 100 μM, threshold 50% RA, no preincubation, 30 min preincubation, or 30 min + DTT
Experimental: To determine the inhibition of MurA, the colorimetric assay with malachite green was used to measure the release of orthophosphate generated during the reaction.[30] […] Time-dependent inhibition assays were also performed by preincubating MurA with the 200 μM UNAG substrate and target compounds for 30 min at 37 °C before starting the reaction with the addition of the second substrate 100 μM PEP, resulting in a final mixture volume of 50 μL. The reaction was stopped after a 15 min incubation at 37 °C by adding the Biomol reagent (100 μL, Enzo Life Sciences, New York), and the absorbance was measured after 5 min at 650 nm using a microplate reader (BioTek, Synergy H4). The final concentration of DMSO in the reaction mixture was 5% (v/v), and 1 μM fosfomycin was used as a reference in the MurA assay. The percentage of residual activity was calculated in comparison to the negative controls, which contained only 5% DMSO. IC50 values were determined by measuring residual activities at 7 different concentrations of the compounds and calculated using GraphPad Prism (GraphPad Software, San Diego, California).
The initial screening of flavonoids was performed under three different assay conditions: (1) without preincubation, (2) with a 30 min preincubation, and (3) with the addition of dithiothreitol (DTT) along with a 30 min preincubation. These different conditions were necessary to understand the mechanism of inhibition of each flavonoid. […] To distinguish whether the adduct formed between the inhibitor and the enzyme was covalent or noncovalent, the inhibitory activity was tested in the presence of 0.1 mM DTT.

E. coli (ATCC 25922) = test: Antibacterial assay, broth microdilution MIC; assay type: cell-based, Escherichia coli
Experimental: as §1

S. aureus = test system: S. aureus; design: method as in PMID 18313801; details: cited from earlier work
[3] = Staphylococcus aureus, ATCC29213, S. aureus ATCC 29213, 35 °C, 20 h, read-out: MIC S. aureus
[4] = 100 μM, 30 min preincubation with addition of DTT (0.1 mM), read-out: RA% (residual activity), 30 min + DTT
[5] = 100 μM, without preincubation, read-out: RA% (residual activity), 0 min
[6] = 30 min preincubation, read-out: IC50, 30 min
[7] = Escherichia coli, ATCC25922, E. coli ATCC 25922, 35 °C, 20 h, read-out: MIC E. coli
[8] = without preincubation, read-out: IC50, 0 min

Row | Molecule | MIC (S. aureus (ATCC 29213); [3]) [µM] | RA% (residual activity), dilution assay (MurA enzyme from E. coli [1]) [%] | time-dependent inhibition: inactive without preincubation, activity after 30 min of preincubation (MurA enzyme from E. coli [2]; 100 μM) | remaining activity at 100 µM (MurA enzyme from E. coli [2]; [4]) [%] | remaining activity at 100 µM (MurA enzyme from E. coli [2]; [5]) [%] | Hill coefficient, 30 min (MurA enzyme from E. coli [2]; 30 min preincubation) | IC50 (MurA enzyme from E. coli [2]; [6]) [µM] | MIC (E. coli (ATCC 25922); [7]) [µM] | effect of DTT on inhibition (comparison of RAs) (MurA enzyme from E. coli [2]; 30 min preincubation) | inhibitory activity on MurA in at least one of the three assays (MurA enzyme from E. coli [2]) | Hill coefficient, 0 min (MurA enzyme from E. coli [2]; without preincubation) | IC50 (MurA enzyme from E. coli [2]; [8]) [µM] | also measured
1 | COc1cc(O)cc2c1C(=O)C[C@@H](c1ccccc1)O2 [Compound 48, (−)-alpinetin] | > 250 | 93 | active after 30 min of preincubation | 102 | 66 | 1.6 | 57 | > 250 | – | – | – | – | –
2 | Oc1cc(O)c2c(c1)O[C@H](c1ccc(O)c(O)c1)[C@@H](O)[C@H]2O [Compound 35, leucocyanidin] | > 250 | – | – | 13 | – | 2.9 | 28.6 | > 250 | reduced inhibition in the presence of DTT | showed inhibitory activity | 2.6 | 69 | Hill coefficient (dose-response curves at 0 and 30 min) (MurA enzyme from E. coli [2]): > 2.5
3 | O=c1c(O)c(-c2ccc(O)c(O)c2)oc2cc(O)cc(O)c12 [Compound 9, quercetin] | > 250 | 93 | – | 46 | – | 1.3 | 9.3 | > 250 | reduced inhibition in the presence of DTT | showed inhibitory activity | 0.8 | 14 | –
4 | O=C1c2c(O)cc(O)cc2OC(c2ccc(O)c(O)c2)C1O (centres unmarked) [Compound 47, taxifolin] | > 250 | 93 | active after 30 min of preincubation | 105 | 98 | 0.5 | 4.5 | > 250 | – | showed inhibitory activity | – | – | –
5 | O=c1c(O)c(-c2cc(O)c(O)c(O)c2)oc2cc(O)cc(O)c12 [Compound 4, myricetin] | > 250 | 84 | active after 30 min of preincubation | 34 | – | 1.9 | – | > 250 | reduced inhibition in the presence of DTT | showed inhibitory activity | 0.8 | – | –
6 | O=C1C[C@@H](c2ccccc2)Oc2ccccc21 [Compound 46, flavanone] | – | – | – | – | – | – | – | – | – | showed inhibitory activity | – | – | –
7 | COc1cc(O)c2c(=O)c(O)c(-c3ccc(O)c(O)c3)oc2c1 [Compound 8, rhamnetin] | > 250 | 77 | – | 58 | – | 1.1 | 13 | > 250 | reduced inhibition in the presence of DTT | showed inhibitory activity | 1.1 | 96 | –
8 | CN(C)[C@@H]1C(O)=C(C(N)=O)C(=O)[C@@]2(O)C(O)=C3C(=O)c4c(O)cccc4[C@@](C)(O)[C@H]3C[C@@H]12 [tetracycline, reference compound] | – | – | – | – | – | – | – | – | – | – | – | – | MIC (S. aureus (ATCC 29213); Staphylococcus aureus, ATCC29213, S. aureus ATCC 29213, read-out: MIC S. aureus (positive control)): 0.5 µg/mL; MIC (E. coli (ATCC 25922); Escherichia coli, ATCC25922, E. coli ATCC 25922, read-out: MIC E. coli (positive control)): 1 µg/mL
9 | O=c1cc(-c2ccccc2)oc2cc(O)c(O)c(O)c12 [Compound 26, baicalein] | 31 | 50 | active after 30 min of preincubation | 86 | 66 | 1.4 | 61 | > 250 | – | showed inhibitory activity | – | – | inhibition of S. aureus growth (S. aureus (ATCC 29213)): weak inhibition; inhibitory activity after dilution (MurA enzyme from E. coli [1]; dilution assay): retained some inhibitory activity; effect on E. coli growth (E. coli (ATCC 25922); broth microdilution): had no effect
10 | O=C1c2c(O)cc(O)cc2O[C@H](c2cc(O)c(O)c(O)c2)[C@H]1O [Compound 49, ampelopsin] | 125 | 100 | – | 101 | – | 0.8 | 0.48 | > 250 | – | showed inhibitory activity | 0.8 | 36 | inhibition of S. aureus growth (S. aureus (ATCC 29213)): weak inhibition; Hill coefficient (dose-response curves at 0 and 30 min) (MurA enzyme from E. coli [2]): ~1
11 | myricitrin [Compound 5] | – | 97 | – | – | – | 0.6 | – | – | – | showed inhibitory activity | – | – | MIC (S. aureus (ATCC 29213); S. aureus ATCC 29213, 35 °C, 20 h, read-out: MIC S. aureus): >250 µM; RA% (residual activity), 30 min + DTT (MurA enzyme from E. coli [2]; 100 μM, 30 min preincubation with addition of DTT (0.1 mM)): 106%; RA% (residual activity), 0 min (MurA enzyme from E. coli [2]; 100 μM, without preincubation): 76%; MIC (E. coli (ATCC 25922); E. coli ATCC 25922, 35 °C, 20 h, read-out: MIC E. coli): >250 µM
12 | O=c1cc(-c2ccc(O)c(O)c2)oc2cc(O)cc(O)c12 [Compound 17, luteolin] | 125 | 91 | – | 96 | 68 | 1.3 | 41.5 | > 250 | – | showed inhibitory activity | – | – | inhibition of S. aureus growth (S. aureus (ATCC 29213)): weak inhibition; antibacterial activity against S. aureus, previous report (S. aureus): 50 µg/mL
13 | O=c1c(O)c(-c2ccc(O)c(O)c2)oc2cc(O)ccc12 [Compound 2, fisetin] | > 250 | 98 | – | 60 | – | 1.0 | 8.8 | > 250 | reduced inhibition in the presence of DTT | showed inhibitory activity | 1.4 | 91 | –
14 | C[C@@H]1O[C@@H](Oc2c(-c3ccc(O)c(O)c3)oc3cc(O)cc(O)c3c2=O)[C@H](O)[C@H](O)[C@H]1O [Compound 10, quercitrin] | – | 88 | active after 30 min of preincubation | 103 | 66 | 1.1 | 33 | – | – | showed inhibitory activity | – | – | MIC (S. aureus (ATCC 29213); Staphylococcus aureus, ATCC29213, 20 h, read-out: MIC S. aureus): > 250 µM; MIC (E. coli (ATCC 25922); Escherichia coli, ATCC25922, 20 h, read-out: MIC E. coli): > 250 µM
15 | O=c1cc(-c2ccccc2)oc2c(O)c(O)ccc12 [Compound 25, 7,8-dihydroxyflavone] | 125 | 100 | – | 89 | – | 1.4 | 12.9 | > 250 | – | showed inhibitory activity | 2 | 88 | inhibition of S. aureus growth (S. aureus (ATCC 29213)): weak inhibition
